Source: US7084161B2, “Method for treating inflammatory diseases or conditions” (SmithKlineBeecham Corporation, priority 2000, dated 2006)

System: LPS-induced INOS activity in J774 cells
Experiment: LPS-induced iNOS activity in J774 cells (DAF-2 fluorescence)
Type: cell-based, mouse
Conditions: pre-treatment 6 hours prior to and 24 hours subsequent to LPS (typically 1 ug/ml), at sub-nanomolar—nanomolar concentrations
Protocol: In this assay system, lipopolysaccharide (LPS) was used to induce the expression of INOS in the mouse macrophage cell line, J774. […] This reduction in INOS activity correlated with a reduction in LPS-induced INOS mRNA expression.
Specifically, LPS-induced INOS activity was measured using the following assay conditions. J774 cells were seeded at a density of […] per well, in a black, clear-bottomed, 96 well plate, 24 hours prior to use. The cell culture and the drug dilutions were carried out in complete media, which consisted of DMEM (Dulbecco's modification of Eagle's medium) containing foetal calf serum (10%), glutamine (2 mM), penicillin (100 u/ml) and streptomycin (100 μg/ml). The J774 cells were pre-treated with the PPAR delta activators A and B, or vehicle, for 6 hours prior to, and for 24 hours subsequent to the addition of LPS (typically, a concentration of 1 ug/ml of LPS was used). Twenty-four hours after the addition of LPS, INOS activity was measured by the following method. […] After incubation at 37° C. for 3 hours, fluorescence from each well was measured at an excitation wavelength of 485 nm, and an emission wavelength of 530 nm. The ability of LPS to induce INOS activity, in the presence and absence of PPAR delta activators, was then calculated. […]

Row | Compound | inhibition of LPS-induced INOS activity
1 | Cc1cc(SCc2sc(-c3ccc(C(F)(F)F)cc3)nc2C)ccc1OCC(=O)O [Compound A, 2-{2-methyl-4-[({4-methyl-2-[4-(trifluoromethyl)phenyl]-1,3-thiazol-5-yl}methyl)sulfanyl]phenoxy}acetic Acid] | marked inhibition
2 | Cc1cc(SCc2sc(-c3ccc(C(F)(F)F)c(F)c3)nc2C)ccc1OCC(=O)O [Compound B, 2-{2-methyl-4-[({4-methyl-2-[3-fluoro-4-(trifluoromethyl)phenyl]-1,3-thiazol-5-yl}methyl)sulfanyl]phenoxy}acetic Acid] | marked inhibition
